Measurements reported in US8592422B2, “Bicyclic triazole and pyrazole lactams as allosteric modulators of mGluR5 receptors” (Vanderbilt University, priority 2010, dated 2013).
Where two headings read alike, the source gives them in different places.

Tests used:
[1] = target: T1, human mGluR5a receptor (Homo sapiens, UniProt P41594); assay: Cell-based functional Ca2+ mobilization assay (FDSS), potentiation of glutamate EC20 response; conditions: for EC50: HEK cells transfected with human mGluR5 (H10H or H12H), in presence of EC20 glutamate; for Emax: maximum % effect in concentration-response curve, as percent of response to maximally effective glutamate
T1 construct: cDNA subcloned into pcDNA3.1(-)
T1 sequence (P41594 21-1180 isoform P41594-2 limits assumed): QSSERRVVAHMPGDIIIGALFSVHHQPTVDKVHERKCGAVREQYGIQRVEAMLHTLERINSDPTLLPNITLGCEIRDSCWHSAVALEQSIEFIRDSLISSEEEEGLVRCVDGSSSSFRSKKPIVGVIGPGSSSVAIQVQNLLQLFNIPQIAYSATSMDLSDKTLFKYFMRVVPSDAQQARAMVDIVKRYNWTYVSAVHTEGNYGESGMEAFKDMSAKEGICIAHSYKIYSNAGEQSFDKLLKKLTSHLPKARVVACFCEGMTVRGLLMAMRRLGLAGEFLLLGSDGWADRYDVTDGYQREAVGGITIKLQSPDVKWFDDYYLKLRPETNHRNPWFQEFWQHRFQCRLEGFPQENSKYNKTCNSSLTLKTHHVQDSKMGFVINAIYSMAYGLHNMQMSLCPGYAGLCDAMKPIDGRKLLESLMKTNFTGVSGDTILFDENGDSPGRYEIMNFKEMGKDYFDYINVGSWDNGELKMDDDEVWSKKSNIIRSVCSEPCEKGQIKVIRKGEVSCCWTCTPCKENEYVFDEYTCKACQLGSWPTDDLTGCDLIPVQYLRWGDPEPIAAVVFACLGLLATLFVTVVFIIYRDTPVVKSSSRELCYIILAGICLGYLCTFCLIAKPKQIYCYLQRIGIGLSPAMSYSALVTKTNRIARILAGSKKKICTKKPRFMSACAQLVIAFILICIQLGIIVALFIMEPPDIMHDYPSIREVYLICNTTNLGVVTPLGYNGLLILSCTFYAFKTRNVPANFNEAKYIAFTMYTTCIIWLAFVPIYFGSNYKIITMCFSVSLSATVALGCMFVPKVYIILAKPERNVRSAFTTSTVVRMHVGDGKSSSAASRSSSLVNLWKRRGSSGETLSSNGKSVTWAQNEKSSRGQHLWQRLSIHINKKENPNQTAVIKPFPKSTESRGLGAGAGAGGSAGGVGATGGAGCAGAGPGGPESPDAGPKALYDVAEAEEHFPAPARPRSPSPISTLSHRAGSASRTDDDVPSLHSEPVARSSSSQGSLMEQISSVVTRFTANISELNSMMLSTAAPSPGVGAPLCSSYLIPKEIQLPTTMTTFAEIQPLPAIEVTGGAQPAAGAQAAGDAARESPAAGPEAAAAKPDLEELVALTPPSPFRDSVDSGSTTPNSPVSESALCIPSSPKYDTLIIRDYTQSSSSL
How it was run: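 HEK293A cells stably expressing human mGluR5a (H10H or H12H clones), plated overnight in glutamate-glutamine-free medium, loaded with Ca2+-sensitive dye (e.g. Fluo-4) and read on FDSS.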

SMILES | melting point | EC50 ([1]; read-out: EC50) | Emax [1] | EC50 ([1]; read-out: pEC50 (converted)) | EC50 ([1]; EC50 (nM))
CC1CN(c2ccc(F)cc2)C(=O)c2cc(COc3ccc(F)cc3)nn21 (racemic) [Example 234] | 164.2 °C | 141 nM | 69% |  | 
CC1CN(c2ccc(F)cc2)C(=O)c2cc(COc3ccccc3)nn21 (racemic) [Example 19] | 99.5 °C | 71 nM | 68% |  | 
O=C1c2cc(COc3ccccc3)nn2CCN1CC1CCC1 [Example 27] | > 300 °C | 92 nM | 80% |  | 
COc1nc(N2C(=O)c3cc(COc4ccccc4)nn3C[C@H]2C)ncc1C [Example 156] | > 300 °C | 540 nM | 79% |  | 
O=C1c2cc(COc3ccccc3)nn2CCN1c1cccc(F)c1 [Example 8] | 155 °C |  | 81% |  | 132 nM
Cc1cccc(OCc2cc3n(n2)C(C)CN(c2ccc(F)cc2)C3=O)c1 (stereo not shown) [Example 242] | 70.2 °C | > 30200 nM | 21% |  | 
CN(C)c1ccnc(N2CCn3nc(COc4ccccc4)cc3C2=O)c1 [Example 282] | 190.2 °C | 1100 nM | 64% |  | 
C[C@@H]1Cn2nc(COc3ccccc3)cc2C(=O)N1c1ccc(F)cn1 [Example 141] | 71.9 °C | 195 nM | 66% |  | 
Cc1cccnc1OCc1cc2n(n1)CCN(c1ccc(F)cc1)C2=O [Example 185] | 270.1 °C | > 10000 nM | 51% |  | 
Cc1cc(N2C(=O)c3cc(COc4ccccc4)nn3C[C@H]2C)ncc1F [Example 155] | 99.3 °C | 130 nM | 62% |  | 
O=C1c2cc(COc3ccccc3)nn2CCN1CC(F)(F)F [Example 24] | 132.1 °C | 2820 nM | 78% | 1660 nM | 
O=C1c2cc(COc3ccc(O)cc3)nn2CCN1c1ccc(F)cn1 [Example 355] | 212.7 °C | 3630 nM | 55% |  | 
COc1ccnc(N2CCn3nc(COc4ccccc4)cc3C2=O)n1 [Example 78] | 144.5 °C | 490 nM | 69% |  | 
COc1ccccc1N1CCn2nc(COc3ccc(F)cc3)cc2C1=O [Example 221] | 117.3 °C | 190 nM | 66% |  | 
O=C1c2cc(COc3ccccc3)nn2CCN1c1cccc(CF)n1 [Example 76] | 111.3 °C | 66 nM | 69% |  | 
Cc1ccc(N2CCn3nc(COc4ccccc4)cc3C2=O)s1 [Example 319] | 194.5 °C |  | 68% | 28.8 nM | 
O=C1c2cc(COc3ccccc3)nn2CCN1c1nccc(N2CCCC2)n1 [Example 309] | 143.2 °C | 3550 nM | 56% |  | 
CN(C)c1cccc(N2CCn3nc(COc4cccc(F)c4)cc3C2=O)n1 [Example 316] | 121.2 °C |  | 74% | 40.7 nM | 
Cc1cc(N2C(=O)c3cc(COc4ccccc4)nn3C[C@H]2C)ccc1F [Example 144] | 94.6 °C |  | 70% | 32.4 nM | 

SMILES | melting point | EC50 ([1]; read-out: EC50) | Emax [1] | EC50 ([1]; read-out: pEC50 (converted)) | EC50 ([1]; EC50 (nM))
COc1cnc(N2CCn3nc(COc4ccccc4)cc3C2=O)nc1 [Example 353] | 266.9 °C | 280 nM | 61% |  | 
CN(C)c1ccnc(OCc2cc3n(n2)CCN(c2ccc(F)cc2)C3=O)c1 [Example 312] | > 300 °C | > 30200 nM | 25% |  | 
O=C1c2cc(COc3ccc(F)cc3)nn2CCN1c1ccc(F)cn1 [Example 179] | > 300 °C | 151 nM | 60% |  | 
O=C1c2cc(COc3ccccc3)nn2CCN1c1cncnc1 [Example 31] | 240 °C | > 10000 nM | 58% |  | 
Cc1nc(N2CC(C)n3nc(COc4ccccc4)cc3C2=O)ccc1F (stereo not shown) [Example 134] | 87.4 °C | 63 nM | 70% |  | 
CC(C)CCc1cccc(N2CCn3nc(COc4ccccc4)cc3C2=O)n1 [Example 65] | 76.7 °C | 363 nM | 74% |  | 
Cc1cccc(OCc2cc3n(n2)CCN(c2ccc(F)cc2)C3=O)c1 [Example 166] | 182.5 °C | 95 nM | 64% |  | 
O=C1c2cc(COc3ccccc3F)nn2CCN1c1ccc(F)cc1 [Example 190] | 183.3 °C |  | 66% |  | 145 nM
N#Cc1cccc(OCc2cc3n(n2)CCN(c2ccc(F)cn2)C3=O)c1 [Example 233] | 181.3 °C | 525 nM | 54% |  | 
COc1nc(N2CCn3nc(COc4ccc(F)cc4)cc3C2=O)ncc1F [Example 318] | > 300 °C | 240 nM | 72% |  | 
O=C1c2cc(COc3ccccc3)nn2CCN1c1ccc(F)c(F)c1 [Example 7] | > 300 °C | 98 nM | 80% |  | 
C[C@@H]1Cn2nc(COc3ccccc3)cc2C(=O)N1CC1CC1 [Example 137] | 64.6 °C | 240 nM | 66% |  | 
COc1cc(F)cc(N2CCn3nc(COc4ccccc4)cc3C2=O)c1 [Example 299] | 127.8 °C | 110 nM | 64% |  | 
COc1ccnc(OCc2cc3n(n2)CCN(c2ccc(F)cc2)C3=O)c1 [Example 195] | > 300 °C | > 10000 nM | 40% |  | 
Cc1cncc(OCc2cc3n(n2)CCN(c2ccc(F)cc2)C3=O)n1 [Example 200] | 156.6 °C | > 30200 nM | 21% |  | 
COc1ncccc1N1C(=O)c2cc(COc3ccccc3)nn2C[C@H]1C [Example 148] | 145.5 °C | 174 nM | 71% |  | 
Cc1cc(OCc2cc3n(n2)CCN(c2ccc(F)cc2)C3=O)ccn1 [Example 174] | > 300 °C | 1260 nM | 34% |  | 
CC(C)N1CCn2nc(COc3ccccc3)cc2C1=O [Example 25] | > 300 °C | 1860 nM | 53% |  | 

More lines, main results first:

melting point | EC50 ([1]; read-out: EC50) | Emax [1] | EC50 ([1]; read-out: pEC50 (converted)) | SMILES | EC50 ([1]; EC50 (nM))
215.1 °C | 355 nM | 70% |  | CN(C)c1cncc(N2CCn3nc(COc4ccccc4)cc3C2=O)n1 [Example 280] | 
283.4 °C | > 10000 nM | 67% |  | Cc1ncc(N2CCn3nc(COc4ccccc4)cc3C2=O)cn1 [Example 33] | 
158.1 °C | 120 nM | 69% |  | COc1nc(N2CCn3nc(COc4ccccc4)cc3C2=O)cnc1C [Example 102] | 
143.7 °C | 891 nM | 65% |  | Cc1cc(N2CCn3nc(COc4ccccc4)cc3C2=O)ncn1 [Example 83] | 
176.6 °C | 224 nM | 69% |  | CNc1nc(N2CCn3nc(COc4ccccc4)cc3C2=O)ncc1F [Example 279] | 
183.7 °C | 646 nM | 67% |  | COc1cc(C)nc(N2CCn3nc(COc4ccccc4)cc3C2=O)n1 [Example 99] | 
169.6 °C | 347 nM | 63% |  | COc1cnc(N2CCn3nc(COc4ccccc4)cc3C2=O)nc1OC [Example 107] | 
239.3 °C | 813 nM | 56% |  | O=C1c2cc(COc3ccccc3)nn2CCN1c1cnccn1 [Example 87] | 
235.5 °C | 955 nM | 67% |  | Cc1cnc(N2CCn3nc(COc4ccccc4)cc3C2=O)cn1 [Example 100] | 
> 300 °C | 310 nM | 62% |  | Cc1ccc(N2CCn3nc(COc4ccccc4)cc3C2=O)c(C)n1 [Example 116] | 
177.1 °C | 575 nM | 67% |  | Cc1nc(N2CCn3nc(COc4ccccc4)cc3C2=O)ncc1F [Example 90] | 
140.9 °C | 54 nM | 67% |  | COc1cc(C)cc(N2CCn3nc(COc4ccccc4)cc3C2=O)n1 [Example 104] | 
117.9 °C | 54 nM | 63% |  | Cc1ccc(N(C)C)nc1N1CCn2nc(COc3ccccc3)cc2C1=O [Example 291] | 
136.3 °C | 100 nM | 68% |  | COc1ccc(N2CCn3nc(COc4ccccc4)cc3C2=O)c(C)n1 [Example 114] | 
164.8 °C | 603 nM | 67% |  | CN(C)c1ccc(N2CCn3nc(COc4ccccc4)cc3C2=O)nc1 [Example 287] | 
141.7 °C | 750 nM | 67% |  | Cc1cnc(C)c(N2CCn3nc(COc4ccccc4)cc3C2=O)n1 [Example 120] | 
